Measured values from ChEMBL document CHEMBL1158927, “Facilitation of protein biosynthesis by ginsenoside-Rb2 administration in diabetic rats” (1990).

Legend:
[1] = tested on: Rattus norvegicus; assay: Antidiabetic activity against streptozotocin-induced diabetic Wistar rat assessed as decrease in serum glucose level at 10 mg/day, ip for 3 days measured after 6 days (RVb=401+/-10.7 mg/dl); type: functional
[2] = tested on: Rattus norvegicus; assay: Antidiabetic activity against streptozotocin-induced diabetic Wistar rat assessed as increase in serum protein level at 10 mg/day, ip for 6 days by biuret method; type: functional
[3] = tested on: Rattus norvegicus; assay: Antidiabetic activity against streptozotocin-induced diabetic Wistar rat assessed as increase in serum albumin level at 10 mg/day, ip for 3 days measured after 3 days by BCG method (RVb=3.24+/-0.11 g/dl); type: functional
[4] = tested on: Rattus norvegicus; assay: Antidiabetic activity against streptozotocin-induced diabetic Wistar rat assessed as […] in incorporation of [14C]leucine into per mg of serum protein at 10 mg/day, ip measured after 6 days (RVb=612+/-40 cpm); type: functional
[5] = tested on: Rattus norvegicus; assay: Antidiabetic activity against streptozotocin-induced diabetic Wistar rat assessed as increase in incorporation of [14C]leucine into hepatic homogenate at 10 mg/day, ip measured per mg protein after 6 days (RVb=372+/-3 cpm); type: functional
[6] = tested on: Rattus norvegicus; assay: Antidiabetic activity against streptozotocin-induced diabetic Wistar rat assessed as increase in serum protein level at 10 mg/day, ip for 3 days measured after 6 days by biuret method (RVb=4.86+/-0.30 g/dl); type: functional
[7] = tested on: Rattus norvegicus; assay: Antidiabetic activity against streptozotocin-induced diabetic Wistar rat assessed as […] in incorporation of [14C]leucine into per mg serum protein at 10 mg/day, ip measured after 3 days (RVb=640+/-50 cpm); type: functional
[8] = tested on: Rattus norvegicus; assay: Antidiabetic activity against streptozotocin-induced diabetic Wistar rat assessed as increase in serum protein level at 10 mg/day, ip for 3 days measured after 3 days by biuret method (RVb=5.06+/-0.18 g/dl); type: functional
[9] = tested on: Rattus norvegicus; assay: Antidiabetic activity against streptozotocin-induced diabetic Wistar rat assessed as increase in incorporation of [14C]leucine into hepatic […] fraction at 10 mg/day, ip measured per mg protein after 6 days (RVb=357+/-14 cpm); type: functional
[10] = tested on: Rattus norvegicus; assay: Antidiabetic activity against streptozotocin-induced diabetic Wistar rat assessed as increase in serum albumin level at 10 mg/day, ip for 3 days measured after 6 days by BCG method (RVb=3.07+/-0.08 g/dl); type: functional
[11] = tested on: Rattus norvegicus; assay: Antidiabetic activity against streptozotocin-induced diabetic Wistar rat assessed as decrease in serum glucose level at 10 mg/day, ip for 3 days measured after 3 days (RVb=396+/-18.7 mg/dl); type: functional
[12] = tested on: Rattus norvegicus; assay: Antidiabetic activity against streptozotocin-induced diabetic Wistar rat assessed as increase in incorporation of [14C]leucine in to hepatic nuclear fraction at 10 mg/day, ip measured per mg protein after 6 days (RVb=273+/-8 cpm); type: functional
[13] = tested on: Rattus norvegicus; assay: Antidiabetic activity against streptozotocin-induced diabetic Wistar rat assessed as increase in incorporation of [14C]leucine into hepatic microsomal fraction at 10 mg/day, ip measured per mg protein after 6 days (RVb=499+/-57 cpm); type: functional, Liver
[14] = tested on: Rattus norvegicus; assay: Antidiabetic activity against streptozotocin-induced diabetic Wistar rat assessed as increase in incorporation of [14C]leucine in to hepatic […] fraction at 10 mg/day, ip measured per mg protein after 3 days (RVb=377+/-10 cpm); type: functional
[15] = tested on: Rattus norvegicus; assay: Antidiabetic activity against streptozotocin-induced diabetic Wistar rat assessed as increase in incorporation of [14C]leucine into hepatic microsomal fraction at 10 mg/day, ip measured per mg protein after 3 days (RVb=555+/-33 cpm); type: functional, Liver
[16] = tested on: Rattus norvegicus; assay: Antidiabetic activity against streptozotocin-induced diabetic Wistar rat assessed as increase in incorporation of [14C]leucine into hepatic soluble fraction at 10 mg/day, ip measured per mg protein after 6 days (RVb=227+/-8 cpm); type: functional
[17] = tested on: Rattus norvegicus; assay: Antidiabetic activity against streptozotocin-induced diabetic Wistar rat assessed as increase in incorporation of [14C]leucine into hepatic homogenate at 10 mg/day, ip measured per mg protein after 3 days (RVb=401+/-16 cpm); type: functional
[18] = tested on: Rattus norvegicus; assay: Antidiabetic activity against streptozotocin-induced diabetic Wistar rat assessed as increase in incorporation of [14C]leucine in to hepatic nuclear fraction at 10 mg/day, ip measured per mg protein after 3 days (RVb=272+/-8 cpm); type: functional
[19] = tested on: Rattus norvegicus; assay: Antidiabetic activity against streptozotocin-induced diabetic Wistar rat assessed as increase in incorporation of [14C]leucine into hepatic soluble fraction at 10 mg/day, ip measured per mg protein after 3 days (RVb=265+/-8 cpm); type: functional

CC(C)=CCC[C@](C)(O[C@@H]1O[C@H](CO[C@@H]2OC[C@H](O)[C@H](O)[C@H]2O)[C@@H](O)[C@H](O)[C@H]1O)[C@H]1CC[C@]2(C)[C@@H]1[C@H](O)C[C@@H]1[C@@]3(C)CC[C@H](O[C@@H]4O[C@H](CO)[C@@H](O)[C@H](O)[C@H]4O[C@@H]4O[C@H](CO)[C@@H](O)[C@H](O)[C@H]4O)C(C)(C)[C@@H]3CC[C@]12C [GINSENOSIDE RB2]
Activity [1]: 321 mg/dL | Activity [2]: 17% | Activity [3]: 3.24 g/dL | Activity [4]: 699 cpm | Activity [5]: 424 cpm | Activity [6]: 5.68 g/dL | Activity [7]: 921 cpm | Activity [8]: 5.11 g/dL | Activity [9]: 395 cpm | Activity [10]: 3.39 g/dL | Activity [11]: 337.2 mg/dL | Activity [12]: 314 cpm | Activity [13]: 737 cpm | Activity [14]: 426 cpm | Activity [15]: 689 cpm | Activity [16]: 242 cpm | Activity [17]: 481 cpm | Activity [18]: 294 cpm | Activity [19]: 287 cpm
